Several values for one entry are separate records, joined by “and”; a condition that tells them apart may be missing. Identical values can stand only once. Entries after “also recorded” stand apart in the source; their conditions may differ. Like-named read-outs stand apart in the source and are kept apart here.
Columns and labels:
[1] = test system: BE2-C neuroblastoma; experiment: MTT growth inhibition assay, BE2-C; type: cell-based, human; settings: 72 h
[2] = test system: non-tumour derived MCF10A breast line; experiment: MTT growth inhibition assay, MCF10A; type: cell-based, human; settings: 72 h
[3] = Lipophilicity by HPLC (log kw); type: physicochemical; settings: for log kw: chromatographic lipophilicity index, extrapolated to 100% d.i.H2O; for log kw (y-intercept of log k versus [CH3CN] % plot, Figure S80): linear fit
Description: For lipophilicity measurements, HPLC was utilised instead of the traditional shake-flask method, as described previously. Recent studies have also reported the efficiency of HPLC in measuring the lipophilicity of compounds [79, 80]. Each complex was eluted under several isocratic ratios. A standard curve was generated to calculate the log value of the capacity factor (log k) according to Equation (1). Following Equation (2), the percentage of organic solvent (CH3CN) in the mobile phase from each isocratic run was plotted against log kw (Figure S80). Log kw is the chromatographic lipophilicity index or measure of lipophilicity of the complex, so a higher value corresponds to greater lipophilicity. Because the selected axial ligands in this study contain F, Cl, Br, and I, it was only appropriate to determine the influence of the halogens on the overall lipophilicity of the platinum(IV) complexes. […] Conversely, the least lipophilic complex was the phen derivative containing 4-FPA, 3, with a log kw of 0.25. Furthermore, for the phen derivatives, the order of increasing lipophilicity was 3 > 1 > 5 > 7, which corresponds to the order of increasing size of the halogens, F > Cl > Br > I. This pattern was also observed with the 5,6-Me2phen derivatives (4 > 2 > 6 > 8), thereby confirming that the halogens increased the order of lipophilicity accordingly based on their size.
For lipophilicity measurements, analytical HPLC was utilised. Elution profiles were acquired on an Agilent (Melbourne, VIC, Australia) Technologies 1260 Infinity instrument equipped with a Phenomenex Onyx^TM Monolithic C18-reverse phase column (100 × 4.6 mm, 5 µm pore size) (Sydney, NSW, Australia). The mobile phase consisted of solvents, A (0.06% TFA in d.i.H2O) and B (0.06% TFA in CH3CN/d.i.H2O (90:10)). Potassium iodide was used as an external dead volume marker to determine the dead time of the column. Retention times (TR) were measured at varying isocratic ratios ranging from 30 to 36% of solvent B at 1 mL·min^−1 mL. An injection volume of 10 µL was utilised. Capacity factors were determined according to Equation (1):(1) k=(TR−T0)/T0 where k is the capacity factor, TR is the retention time of the analyte, and T0 represents the dead time. A minimum of four different mobile compositions were used for each complex to calculate k. A linear plot was generated of log k against the concentration of CH3CN in the mobile phase to determine the value of log kw expressed by Equation (2):(2) logk=Sφ+logkw where S is the slope, φ is the concentration of the CH3CN in the mobile phase, and log kw represents the capacity factor of the complex in 100% d.i.H2O. Extrapolation of this linear plot to the y-intercept indicates the log kw value.

[4] = test system: H460 lung; experiment: MTT growth inhibition assay, H460; type: cell-based, human; settings: 72 h
[5] = test system: U87 glioblastoma; experiment: MTT growth inhibition assay, U87; type: cell-based, human; settings: 72 h
[6] = test system: HT29 colon cells; experiment: ROS detection assay (DCFH-DA); type: cell-based, human; settings: HT29 colon cells, treated at GI50 concentration (TBHP positive control 20 μM)
Description: Although ROS is required for cancer cell function and progression, it can induce programmed cell death or apoptosis. […] In this study, we report the ROS activity of the studied platinum(IV) complexes, 1–8, together with the individual axial ligands (4-CPA, 4-FPA, 4-BPA, and 4-IPA) in the human cancer cell line, HT29 colon (Figure 19, Table 8, and Figure S95). The ROS potential of their platinum(II) and platinum(IV) precursors in the same cell line is also presented for comparison purposes (Table 8). […] HT29 colon cells were stained by DCFH-DA and then treated with the complexes at each specific GI50 concentration. Upon ROS production, the DCFH-DA produced dichlorodihydrofluorescein, a fluorescent product. The measured fluorescence was, therefore, proportional to the produced ROS.
To investigate the presence of ROS in treated cells, a DCFDA/H2DCFDA-cellular ROS Assay Kit (Abcam, Cambridge, MA, USA) was used, as previously described. A total of 25,000 cells/mL of HT29 cells in DMEM were seeded in 96-well plates. Cells were washed with 1X kit buffer, and then stained with 25 μM 2′,7′-dichlorofluorescein diacetate (DCFH-DA) and incubated for 45 min. DCFH-DA was then removed, and cells were then re-washed with 1X kit buffer, after which phenol red free media was added. Cells were then treated with a GI50 drug concentration for each complex. The plates were directly scanned to measure fluorescence (relative fluorescence units (RFU)) at different time points using the Glo-Max®-Multimode microplate reader (Promega Corporation, Alexandra, VIC, Australia) at an excitation/emission of 485/535 nm. To generate the positive control (20 μM tert-butyl hydroperoxide (TBHP)), cells were washed with 1X kit buffer, and stained with DCFDA (25 μM) for 45 min; this was removed and TBHP was added in phenol red free media, and the resulting solution was scanned as described above.

[7] = test system: SJ-G2 glioblastoma; experiment: MTT growth inhibition assay, SJ-G2; type: cell-based, human; settings: 72 h
[8] = test system: MCF-7 breast; experiment: MTT growth inhibition assay, MCF-7; type: cell-based, human; settings: MTT assay, 72 h
[9] = test system: ADDP-resistant ovarian variant; experiment: MTT growth inhibition assay, ADDP; type: cell-based, human; settings: for GI50: MTT assay, 72 h
[10] = test system: HT29 colon; experiment: MTT growth inhibition assay, HT29; type: cell-based, human; settings: MTT assay, 72 h
[11] = test system: panel of cell lines; experiment: MTT growth inhibition assay, whole panel of cell lines; type: cell-based, human; settings: average over the cell lines tested, MTT assay, 72 h
[12] = test system: Du145 prostate; experiment: MTT growth inhibition assay, Du145; type: cell-based, human; settings: for GI50: MTT assay, 72 h
[13] = test system: A2780 ovarian; experiment: MTT growth inhibition assay, A2780; type: cell-based, human; settings: 72 h
[14] = Reduction experiments with AsA by 1H-NMR and 1D-195Pt-NMR; type: physicochemical; settings: D2O, 37 °C; for T50% (approximate time at which 50% reduction occurs): 10 mM PBS (~7.4 pH), 1H-NMR; for extent of reduction 1 h after the final 1H-NMR experiment (1D-195Pt-NMR): PBS, regions −2800 and 400 ppm
Description: Platinum(IV) complexes are reduced to their platinum(II) precursors by intracellular biological reducing agents such as AsA or GSH in tumour cells. However, the precise mechanism by which reduction occurs is not fully understood. In this paper, reduction reaction experiments were undertaken on the synthesised platinum(IV) complexes, 1–8, with the aid of ^1H-NMR and 1D-^195Pt-NMR spectroscopy. The method used for the reduction reaction experiments was adapted from the literature without modifications. A total of 10 mM PBS (~7.4 pH) was selected as media, and AsA was used as the biological reducing agent to investigate the reduction property of 1–8. Prior to the reduction reaction experiments, a control was prepared where each metal complex was dissolved with PBS in D2O. 1D-^195Pt-NMR was measured within the regions of −2800 and 400 ppm (30 min per region), at 37 °C. This was undertaken to confirm that the PBS would not interfere with the reduction process of the metal complexes. […] The approximate time points for the studied complexes at which an estimated 50% reduction had occurred, in the presence of AsA, as represented by T50%, are summarised in Table 6.
The reduction properties of 1–8 were monitored using ^1H-NMR and 1D-^195Pt-NMR spectroscopy on a 400 MHz Bruker (Melbourne, VIC, Australia) Avance Spectrometer. A sequence of ^1H-NMR experiments was carried out for 1 h at 37 °C, followed by 1D-^195Pt-NMR within the regions of −2800 and 400 ppm. An amount of 10 mM PBS (~7.4 pH) was transferred to a vial and reduced to dryness through rotary evaporation. AsA (~1 mg) was combined with the metal complex (~5 mg) and transferred to the vial containing the dried PBS. A total of 600 µL of D2O was then added to the vial to dissolve the complex, AsA, and the PBS together.

[15] = test system: MIA pancreas; experiment: MTT growth inhibition assay, MIA; type: cell-based, human; settings: 72 h
[16] = test system: A431 skin; experiment: MTT growth inhibition assay, A431; type: cell-based, human; settings: 72 h
[17] = Du145 prostate, ratio of GI50 values

Compound	GI50 [1] [nM]	GI50 [2] [nM]	log kw [3]	log kw (y-intercept of log k versus [CH3CN] % plot, Figure S80) [3]	GI50 [4] [nM]	GI50 [5] [nM]	ROS production 24 h [6] [RFU]	ROS production 48 h [6] [RFU]	ROS production 72 h [6] [RFU]	GI50 [7] [nM]	GI50 [8] [nM]	GI50 [9] [nM]	GI50 [10] [nM]	GI50 [11] [nM]	GI50 [12] [nM]	GI50 [13] [nM]	T50% (approximate time at which 50% reduction occurs) [14] [min]	extent of reduction 1 h after the final 1H-NMR experiment (1D-195Pt-NMR) [14]	GI50 [15] [nM]	GI50 [16] [nM]	other results
Cc1c(C)c2c3c4c1=CC=C[N]4[Pt+2]([OH])([O]C(=O)Cc1ccc(F)cc1)[N]3C=CC=2.N[C@H]1CCCC[C@@H]1N [Complex 4, [Pt^IV(5,6-Me2phen)(SS-DACH)(4-FPA)(OH)]^2+]	110 ± 20	11 ± 3	0.80	0.8042	10 ± 3	37 ± 5	579 ± 18	681 ± 17	738 ± 15	30 ± 8	23 ± 5	6 ± 2	6 ± 2	23 ± 4	0.7 ± 0.4	20 ± 4	20 to 25	partial reduction	5 ± 2	14 ± 2	fold more potent than cisplatin [9]: ~4700 fold; fold more potent than 56MESS [12, 17]: ~7 fold and 6.6 fold
N[C@H]1CCCC[C@@H]1N.O=C([O-])Cc1ccc(Br)cc1.[OH-].[Pt+4].c1cnc2c(c1)ccc1cccnc12 [Complex 5, [Pt^IV(phen)(SS-DACH)(4-BPA)(OH)]^2+]	960 ± 120	320 ± 20	0.87	0.8765	320 ± 20	1100 ± 230	281 ± 16	399 ± 12	478 ± 9	350 ± 20	850 ± 240	250 ± 20	190 ± 20	457 ± 70	110 ± 11	380 ± 50	15 to 20	partial reduction	200 ± 20	450 ± 10	
Cc1c(C)c2c3c4c1=CC=C[N]4[Pt+2]([OH])([O]C(=O)Cc1ccc(Br)cc1)[N]3C=CC=2.N[C@H]1CCCC[C@@H]1N [Complex 6, [Pt^IV(5,6-Me2phen)(SS-DACH)(4-BPA)(OH)]^2+]	100 ± 20	10 ± 2	1.07	1.0701	10 ± 2	35 ± 5	496 ± 14	598 ± 14	643 ± 14	23 ± 5	21 ± 5	6 ± 2	7 ± 2	22 ± 4	1 ± 0.6	20 ± 3	30	partial reduction; also recorded: traces of platinum(IV) species were still observed	7 ± 2	19 ± 0.9	fold more potent than cisplatin ([9]; ADDP-resistant ovarian variant, ratio of GI50 values): ~4700 fold; fold more potent than 56MESS [12, 17]: 4.6 fold; fold more potent than cisplatin [12, 17]: 1200 fold
